Like-named read-outs stand apart in the source and are kept apart here.
Target: T1, human SCD1 enzyme (Homo sapiens, UniProt O00767)
T1 sequence (O00767 1-359): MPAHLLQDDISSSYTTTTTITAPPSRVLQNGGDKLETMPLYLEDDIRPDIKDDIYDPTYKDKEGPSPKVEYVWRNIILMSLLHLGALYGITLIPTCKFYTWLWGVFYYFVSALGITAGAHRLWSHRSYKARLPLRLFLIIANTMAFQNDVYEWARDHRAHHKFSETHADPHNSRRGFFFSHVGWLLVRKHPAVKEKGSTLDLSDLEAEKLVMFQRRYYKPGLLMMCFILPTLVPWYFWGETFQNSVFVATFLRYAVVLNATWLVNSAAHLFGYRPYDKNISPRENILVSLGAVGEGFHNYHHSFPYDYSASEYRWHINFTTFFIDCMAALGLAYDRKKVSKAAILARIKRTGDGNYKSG
Assay: Tritiated water release assay (conversion of radiolabeled stearoyl-CoA to oleoyl-CoA)
Format: biochemical
Conditions: 10 μM concentration of test compounds, microsomal SCD1, 3H stearoyl CoA, 37° C. 30 minutes, percent of control reaction
Experimental: The in-vitro activity of the compounds of the present invention against stearoyl coenzyme desaturase was determined by following conversion of radiolabeled-stearoyl-CoA to oleoyl-CoA using human SCD1 enzyme using a previously published assay procedure with some modifications (Barbara R Talamo and Konrad Bloch, Analytical Biochemistry, 1969, 29, 300-304). This assay protocol is only illustrative and is not meant to limit to the scope of the present invention.
In this assay the microsomal SCD1 enzyme desaturates its substrate, Stearoyl CoA (purchased from American Radiochemicals Ltd.) which is tritiated at C9 and C10 positions. Test compounds were dissolved in dimethylsulfoxide and tested at 10 μM final concentration. Before substrate addition, the test compound or standard reference compound (conjugated linoleic acid at 100 μM final concentration) were pre-incubated in reaction buffer with the enzyme for 10 minutes at 30° C. with shaking. Reaction buffer was prepared as described in literature (Obukowicz et al. JPET, 1998, 287, 157-166) except that the MgCl2, ATP (purchased from Sigma) and CoA (purchased from Sigma) concentrations were changed to 4.9 mM, 7.2 mM and 0.54 mM respectively. The desaturation reaction was initiated by addition of 0.5 μCi of ^3H stearoyl CoA and incubated at 37° C. for 30 minutes with shaking. A control reaction was set without any test compound/reference inhibitor to capture maximum enzymatic activity in the assay. Inhibition of enzyme activity was calculated as a percent of this control reaction giving maximum catalysis and the results are given in Table 5.
Table 5: Tritiated water release assay at 10 μM substrate concentration *Conjugated Linoleic acid was used as a reference standard

inhibition at 10 µM (read-out: % Inhibition) | SMILES | inhibition at 10 µM
82% | Fc1cccc(C#Cc2ccc(N3CCC(Oc4ccccc4C(F)(F)F)CC3)nn2)c1 [Example 89, 3-[2-(3-Fluorophenyl)-1-ethynyl]-6-[4-(2-trifluoromethylphenoxy)piperidino]pyridazine] | 
98% | Oc1ccc(C#Cc2ccc(N3CCC(Oc4ccccc4F)CC3)nn2)cc1F [Example 82] | 
92% | CC(=O)Oc1cccc(C#Cc2ccc(N3CCC(Oc4ccccc4F)C3)nn2)c1 (stereo in doubt) [Example 68, 3-(2-{6-[(3S)-3-(2-Fluorophenoxy)azolan-1-yl]-3-pyridazinyl}-1-ethynyl)phenyl acetate] | 
47% | N#Cc1cccc(C#Cc2ccc(N3CCN(C(=O)C4CCCC4)CC3)nn2)c1 [Example 54, 3-({6-[4-(Cyclopentylcarbonyl)piperazin-1-yl]pyridazin-3-yl}ethynyl)benzonitrile] | 
55% | CC(=O)Oc1ccc(C#Cc2ccc(NCCOc3ccccc3F)nn2)cc1 [Example 99] | 
23% | CC(=O)Nc1cccc(C#Cc2ccc(N3CCN(C(=O)c4ccccc4C(F)(F)F)CC3)nc2)c1 [Example 36, N1-[3-(2-{6-[4-(2-Trifluoromethylbenzoyl)piperazino]-3-pyridyl}-1-ethynyl)phenyl]acetamide] | 
19% | O=C(c1ccccc1C(F)(F)F)N1CCN(c2ccc(C#CC3(O)CCCC3)cn2)CC1 [Example 5, 4-{5-[2-(1-Hydroxycyclopentyl)-1-ethynyl]-2-pyridyl}piperazino-2-trifluoromethyl phenylmethanone] | 
66% | O=C(c1ccccc1C(F)(F)F)N1CCN(c2ncc(C#Cc3ccc4[nH]ccc4c3)cn2)CC1 [Example 50, 4-{5-[2-(1H-5-Indolyl)-1-ethynyl]-2-pyrimidinyl}piperazino-2-trifluoromethylphenyl-methanone] | 
91% | O=C(c1ccccc1C(F)(F)F)N1CCN(c2ccc(C#Cc3ccc4[nH]ccc4c3)cn2)CC1 [Example 49, 4-{5-[2-(1H-5-Indolyl)-1-ethynyl]-2-pyridyl}piperazino-2-trifluoromethylphenyl-methanone] | 
42% | O=C(c1ccccc1C(F)(F)F)N1CCN(c2ccc(C#CC(O)c3ccccc3)cn2)CC1 (stereo not shown) [Example 8, 4-[5-(3-Hydroxy-3-phenyl-1-propynyl}-2-pyridyl}piperazino-2-trifluoromethylphenyl-methanone] | 
 | Oc1ccc(C#Cc2ccc(N3CCC(Oc4ccccc4F)CC3)nn2)cc1 [Example 77] | 97%
22% | CC(C)(O)C#Cc1cnc(N2CCN(C(=O)c3ccccc3C(F)(F)F)CC2)nc1 [Example 4, 4-[5-(3-Hydroxy-3-methyl-1-butynyl)-2-pyrimidinyl]piperazino-2-trifluoromethylphenyl-methanone] | 
63% | Oc1ccc(C#Cc2ccc(NCCOc3ccccc3F)nn2)cc1 [Example 100] | 
35% | COC(=O)c1ccc(C#Cc2ccc(N3CCN(C(=O)c4ccccc4C(F)(F)F)CC3)nc2)cc1 [Example 32] | 
96% | Oc1ccc(C#Cc2ccc(N3CCC(Nc4ccccc4F)CC3)nn2)cc1 [Example 102, 4-{6-[4-(2-Fluorophenylamino)piperidin-1-yl]pyridazin-3-yl}ethynylphenol] | 
36% | O=C(c1ccccc1C(F)(F)F)N1CCN(c2ccc(C#CCO)cn2)CC1 [Example 1, 4-[5-(3-Hydroxy-1-propynyl)-2-pyridyl]piperazino-2-trifluoromethylphenylmethanone] | 
24% | [O-][n+]1cccc(C#Cc2ccc(N3CCC(Oc4ccccc4F)CC3)nn2)c1 [Example 95] | 
95% | CC(=O)Oc1cccc(C#Cc2ccc(N3CCC(Oc4ccccc4C(F)(F)F)CC3)nn2)c1 [Example 90, 3-(2-{6-[4-(2-Trifluoromethylphenoxy)piperidino]-3-pyridazinyl}-1-ethynyl)phenyl acetate] | 
37% | CCOC(=O)c1ccc(C#Cc2ccc(N3CCN(C(=O)c4ccccc4C(F)(F)F)CC3)nc2)nc1 [Example 44] | 
